Test results: US7713934B2, “Thrombin peptide derivatives” (The Board of Regents, The University of Texas System, priority 2002, dated 2010)

Tests used:
thrombin receptors = assay: Peptide competition for [125I]-alpha-thrombin binding to ME cells; conditions: for Concentration Required for 30% Inhibition: [125I]-alpha-thrombin binding to ME cells; for fold higher concentration than p508-530 required for 30% inhibition of [125I]-alpha-thrombin binding: relative to p508-530
Description: Thrombin peptide derivatives are believed to activate cells by binding to a high-affinity cell-surface thrombin receptor known as the non-proteolytically-activated thrombin receptor (hereinafter “NPAR”) (R. Horvat, et. al., J. Cell Sci. 108, 1155-1164 1995). Compounds which stimulate NPAR are said to be thrombin receptor agonists. NPAR activation can be assayed based on the ability of molecules to stimulate cell proliferation when added to fibroblasts in the presence of submitogenic concentrations of thrombin or molecules that activate protein kinase C or compete with ^125I-thrombin for high affinity binding17 to thrombin receptors, as disclosed in U.S. Pat. Nos. 5,352,664 and 5,500,412 and in Glenn et al., J. Peptide Research 1:65 (1988).
To further identify regions of thrombin involved in high-affinity binding and generation of mitogenic signals, two peptides representing specific domains within p508-530 were tested. The first peptide represented residues 519 to 530 of the B-chain region of human prothrombin, a region of thrombin that is highly conserved among serine proteases. The second peptide represented residues 517 to 520 of prothrombin, a region of thrombin homologous to the fibronectin cell binding domain.
Because p517-520 is homologous to the fibronectin cell binding domain, a peptide having the sequence Arg-Gly-[…]-Ser (SEQ ID NO:18; the sequence of the fibronectin specific peptide) was also tested for its ability to compete for [^125I]-alpha-thrombin binding.

[1] = Dimer formation / stability in saline solution by HPLC; type: physicochemical; conditions: 5 mg/mL, 4° C.
Description: Over a time period of 6 months, triplicate samples were taken at intervals from the solution.
The area percent of each HPLC peak was plotted in FIG. 3. The peak area percent corresponds directly to the percent of material in solution.
Over a time period of 1 month, triplicate samples were taken at intervals from the solution. […] The area percent of each HPLC peak was plotted in FIG. 4. The peak area percent corresponds directly to the percent of material in solution.
Over a time period of 1 month, triplicate samples were taken at intervals from the solution. […] The area percent of each HPLC peak was plotted in FIG. 5. The peak area percent corresponds directly to the percent of material in solution.

[2] = tested on: full-thickness, 2 cm-diameter excisions on the dorsum; assay: Wound closure, full-thickness excisions in rats (Example 1, TP508-Ala); type: in vivo, male Sprague-Dawley rats; conditions: for wound area smaller than controls: 0.1 μg per wound, topical; for wound healing activity compared with TP508: Example 1, 0.1 μg per wound
Protocol: (§1) Two, full-thickness, 2 cm-diameter excisions were created on the dorsum of male Sprague-Dawley rats. […] Wound size was determined on post-wounding days 3, 7, and 10 by tracing the perimeter of the wound onto an acetate sheet and using digital analysis to compute the surface area of each wound.
Each group contained 6 rats.
(§2) Saline was used as the vehicle for the experiment. […] The working solution was maintained on ice throughout the experiment.
(§3) The working solution was maintained on ice throughout the experiment.
(§4) On post-wounding days 3, 7, and 10, the wounds were evaluated by tracing the wound perimeter onto a flexible acetate sheet, then determining wound area with digital analysis software.
Each data point represents the mean and standard error of the mean of 12 wounds from 6 rats. Statistical comparisons between groups were made using a repeated measures analysis of variance; Fisher's LSD was used for post hoc testing between groups.

[3] = tested on: full-thickness, 2 cm-diameter excisions on the dorsum; assay: Wound closure, full-thickness excisions in rats (Example 2, TP508-Ser); type: in vivo, male Sprague-Dawley rats; conditions: for wound area reduced: 0.1 μg per wound, topical; for wound healing activity compared with TP508: Example 2, 0.1 μg per wound
Protocol: as §1
Each group contained 8 rats.
as §2, §3, §4
Each data point represents the mean and standard error of the mean of 16 wounds from 8 rats. Statistical comparisons between groups were made using a repeated measures analysis of variance; Fisher's LSD was used for post hoc testing between groups.

NIL cells = conditions: increasing concentrations, quiescent NIL cells, 2 and 4 nM alpha-thrombin; FIG. 6 of U.S. Pat. No. 5,500,412; cited from earlier work

Arg-Gly-Ala-Ser (RGAS; Fibronectin Specific Peptide)
competition with [125I]-alpha-thrombin for binding (thrombin receptors; at a concentration of 1.3 μM): did not compete

H-Ala-Gly-Tyr-Lys-Pro-Asp-Glu-Gly-Lys-Arg -Gly-Asp-Ala-Ala-Glu-Gly-Asp-Ser-Gly-Gly-Pro-Phe-Val-NH2 (H-AGYKPDEGKRGDAAEGDSGGPFV-NH2) [TP508-Ala]
HPLC peak area of monomer / peptide over time ([1]; 1 month): no decrease over time | conversion to dimer ([1]; 1 month): does not convert to dimer | conversion to dimer ([1]; 6 months): no dimerization | wound area smaller than controls ([2]; post-wounding Day 7): 18.7% | wound area smaller than controls ([2]; post-wounding Day 10): 25.1% | wound healing activity compared with TP508 [2]: equivalent to TP508 in efficacy and potency | wound healing activity compared with TP508 ([2]; listed as TP508 Cys→Ala): about the same level of activity toward the thrombin receptor as TP508

H-Ala-Gly-Tyr-Lys-Pro-Asp-Glu-Gly -Lys-Arg-Gly-Asp-Ala-Ser-Glu-Gly-Asp-Ser-Gly-Gly-Pro-Phe-Val-NH2 (H-AGYKPDEGKRGDASEGDSGGPFV-NH2) [TP508-Ser]
wound area reduced ([3]; post-wounding Day 7): 18.2% | wound area reduced ([3]; post-wounding Day 10): 43.3% | wound healing activity compared with TP508 [3]: equivalent to TP508 in efficacy and potency | wound healing activity compared with TP508 ([3]; listed as TP508 Cys→Ser): about the same level of activity toward the thrombin receptor as TP508

RGDA (Thrombin Peptide) [p517-520]
Concentration Required for 30% Inhibition (thrombin receptors): 300 nM | fold higher concentration than p508-530 required for 30% inhibition of [125I]-alpha-thrombin binding (thrombin receptors): 50 fold | effect on DNA synthesis (NIL cells): inhibited DNA synthesis

DACEGDSGGPFV (Thrombin Peptide Derivative) [p519-530]
Concentration Required for 30% Inhibition (thrombin receptors): 200 nM | Maximal % Inhibition (thrombin receptors; at 800 nM, ME cells): 51% | fold higher concentration than p508-530 required for 30% inhibition of [125I]-alpha-thrombin binding (thrombin receptors): 33 fold | effect on DNA synthesis (NIL cells): enhanced DNA synthesis
